Legend:
[1] = system: human colon cancer cell line HCT-116; experiment: In vitro cell proliferation assay; type: cell-based; settings: HCT-116, 72 hours of treatment, read-out: Cell Antiproliferation IC50
Protocol: The compounds of the invention were further tested, in vitro to assess the anti-proliferative effect onto cell cultures.
In Vitro Cell Proliferation Assay
The human colon cancer cell line HCT-116 was seeded at 5000 cells/cm^2 in 24 wells plate (Costar) using F12 medium (Gibco) supplemented with 10% FCS (EuroClone, Italy) 2 mM L-glutamine and 1% penicillin/streptomycin and maintained at 37° C., 5% CO2 and 96% relative humidity. The following day, plates were treated in duplicates with 5 ul of an appropriate dilution of compounds starting from a 10 mM stock in DMSO. Two untreated control wells were included in each plate. After 72 hours of treatment, medium was withdrawn and cells detached from each well using 0.5 mL of 0.05% (w/v) Trypsin, 0.02% (w/v) EDTA (Gibco) Samples were diluted with 9.5 mL of Isoton (Coulter) and counted using a Multisizer 3 cell counter (Beckman Coulter). Data were evaluated as percent of the control wells, % of CTR=(Treated−Blank)/(Control−Blank). IC50 values were calculated by LSW/Data Analysis using Microsoft Excel sigmoidal curve fitting.

Aurora-2 = target: T1, Aurora-2 (Homo sapiens, UniProt O14965); experiment: Inhibition assay of Aurora-2 activity (SPA); type: biochemical
T1 sequence (O14965 1-403): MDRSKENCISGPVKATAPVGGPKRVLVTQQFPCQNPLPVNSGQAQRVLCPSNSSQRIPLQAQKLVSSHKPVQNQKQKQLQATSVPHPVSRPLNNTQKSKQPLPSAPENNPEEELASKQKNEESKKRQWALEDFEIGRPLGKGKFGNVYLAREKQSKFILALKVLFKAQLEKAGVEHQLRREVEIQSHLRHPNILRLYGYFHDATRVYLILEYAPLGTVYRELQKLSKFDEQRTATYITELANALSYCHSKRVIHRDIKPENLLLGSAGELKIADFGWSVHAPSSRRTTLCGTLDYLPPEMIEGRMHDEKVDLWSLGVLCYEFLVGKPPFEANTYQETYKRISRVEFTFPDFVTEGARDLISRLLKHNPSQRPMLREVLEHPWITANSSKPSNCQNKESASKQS
Protocol: The inhibiting activity and the potency of selected compounds is determined through a method of assay based on the use of the SPA technology (Amersham Pharmacia Biotech).
The assay consists of the transfer of radioactivity labelled phosphate moiety by the kinase to a biotinylated substrate. The resulting 33P-labelled biotinylated product is allowed to bind to streptavidin-coated SPA beads (biotin capacity 130 pmol/mg), and light emitted was measured in a scintillation counter.
Inhibition Assay of Aurora-2 Activity
Kinase reaction: 8 μM biotinylated peptide (4 repeats of LRRWSLG), 10 μM ATP (0.5 uCi P^33γ-ATP), 7.5 ng Aurora 2, inhibitor in a final volume of 30 μl buffer (HEPES 50 mM pH 7.0, MgCl2 10 mM, 1 mM DTT, 0.2 mg/mL BSA, 3 μM orthovanadate) were added to each well of a 96 U bottom well plate. After 60 minutes at room temperature incubation, reaction was stopped and biotinylated peptide captured by adding 100 μl of bead suspension.
Stratification: 100 μl of CsCl 5 M were added to each well and let stand 4 hour before radioactivity was counted in the Top-Count instrument.
IC50 determination: inhibitors were tested at different concentrations ranging from 0.0015 to 10 μM. […]

IC50 [1]: 5 nM
IC50 (Aurora-2): 6 nM
Structure (SMILES): CC(C)(NC(=O)c1cc2[nH]nc(NC(=O)c3ccccc3NC(=O)c3ccc[nH]3)c2o1)c1ccccc1 [(1), 3-{2-[(1H-Pyrrole-2-carbonyl)-amino]-benzoylamino}-1H-furo[3,2-c]pyrazole-5-carboxylic acid (1-methyl-1-phenyl-ethyl)-amide]

From US8119641B2, “1H-furo[3,2-C]pyrazole compounds useful as kinase inhibitors” (Nerviano Medical Sciences S.R.L., priority 2006, dated 2012)
